Experimental data as given in US9808448B2, “Pharmaceutical compounds and use of same in cancer and tauopathies” (THE REGENTS OF THE UNIVERSITY OF MICHIGAN, priority 2013, dated 2017).
Read-outs that look alike come from different tables or passages of the source.

Tests used:
Assay type in all cases: cell-based
[1] = tested on: MDA-MB-231; assay: Cancer activity screen (MTT cell survival), MDA-MB-231; settings: Homo sapiens
[2] = tested on: MEF (C57BL/6); assay: Cell survival, MEF; settings: Mus musculus, read-out: IC50/μM MEF (C57BL/6)
[3] = tested on: HeLa; assay: Cancer activity screen (MTT cell survival), HeLa; settings: Homo sapiens
[4] = tested on: MCF-7; assay: Cancer activity screen (MTT cell survival), MCF-7; settings: Homo sapiens, MCF7
[5] = tested on: MCF-10A; assay: Cancer activity screen (MTT cell survival), MCF-10A; settings: Homo sapiens

SMILES | IC50 ([1]; second table) [µM] | other results
COC(=O)Cn1c(=O)/c(=C2\Sc3cc(C(F)(F)F)ccc3N2C)s/c1=C\c1cccc[n+]1C | > 20 | –
CCn1c(=O)/c(=C2\Sc3c(ccc(F)c3F)N2C)s/c1=C\c1scc[n+]1Cc1ccsc1 | 0.81 ± 0.06 | –
CN1/C(=c2\s/c(=C\c3ccncc3)n(CC(=O)O)c2=O)Sc2cccc(F)c21 | > 20 | –
CCN1C(=O)/C(=C2\Sc3c(F)cccc3N2C)S/C1=N\c1ccccc1 | 17.7 ± 2.85 | IC50 ([2]; second table): > 50 µM
CCn1c(=O)/c(=C2\Sc3cc(F)ccc3N2C)s/c1=C\c1scc[n+]1Cc1ccccc1C(F)(F)F | 0.21 ± 0.03 | –
CCN1C(=O)/C(=C2\Sc3ccccc3N2C)S/C1=N\c1ccccc1 | > 30 | IC50 ([2]; second table): > 50 µM
CCn1c(=O)/c(=C2\Sc3ccccc3N2C)s/c1=C\c1cc[n+](C)cc1 | 3.01 ± 0.26 | IC50 ([2]; second table): > 50 µM
CCn1c(=O)/c(=C2\Sc3ccc(Cl)cc3N2C)s/c1=C\c1scc[n+]1C | 3.1 ± 0.4 | –
COC(=O)Cn1c(=O)/c(=C2\Sc3ccccc3N2C)s/c1=C\c1ccccn1 | – | IC50 ([2]; second table): > 50 µM
CCn1c(=O)/c(=C2\Sc3c(Cl)cccc3N2C)s/c1=C\c1scc[n+]1Cc1ccccc1 | – | IC50 [3]: 3.93 ± 0.51 µM; IC50 [2]: > 30 µM; IC50 [4]: 1.05 ± 0.79 µM; IC50 [1]: 0.55 ± 0.05 µM
CCn1c(=O)/c(=C2\Sc3cccc(F)c3N2C)s/c1=C\c1cccc[n+]1Cc1ccc(CNC(=O)OC(C)(C)C)cc1 | – | IC50 [3]: 7.6 ± 0.99 µM; IC50 [4]: 1.39 ± 0.24 µM; IC50 [1]: 1.99 ± 0.33 µM
CN1/C(=c2\s/c(=C\c3scc[n+]3Cc3ccccc3C(F)(F)F)n(C)c2=O)Sc2c1ccc(F)c2F | 0.12 ± 0.009 | –
CCn1c(=O)/c(=C2\Sc3cc(C)ccc3N2C)s/c1=C\c1scc[n+]1Cc1ccccc1 | 0.041 ± 0.006 | –
COC(=O)Cn1c(=O)/c(=C2\Sc3c(F)cccc3N2C)s/c1=C\c1ccccn1 | > 20 | –
COC(=O)Cn1c(=O)/c(=C2\Sc3ccccc3N2C)s/c1=C\c1cccc[n+]1C | 16.5 ± 1.05 | IC50 ([2]; second table): > 50 µM
CCn1c(=O)/c(=C2\Sc3cc(Cl)ccc3N2C)s/c1=C\c1scc[n+]1Cc1ccsc1 | 0.11 ± 0.01 | –
CCn1c(=O)/c(=C2\Sc3ccc(Cl)cc3N2C)s/c1=C\c1scc[n+]1Cc1ccsc1Br | 0.24 ± 0.03 | –

SMILES | IC50 ([1]; second table) [µM] | other results
COC(=O)Cn1c(=O)/c(=C2\Sc3cccc(F)c3N2C)s/c1=C\c1ccccn1 | > 20 | –
COC(=O)Cn1c(=O)/c(=C2\Sc3cc(C(F)(F)F)ccc3N2C)s/c1=C\c1scc[n+]1Cc1ccccc1 | 2.1 ± 0.4 | –
COC(=O)CCn1c(=O)/c(=C2\Sc3cc(Cl)ccc3N2C)s/c1=C\c1scc[n+]1Cc1ccccc1 | 0.24 ± 0.03 | –
CCn1c(=O)/c(=C2\Sc3cc(Cl)ccc3N2C)s/c1=C\c1scc[n+]1Cc1ccc(F)cc1 | 1.07 ± 0.19 | –
COC(=O)CCn1c(=O)/c(=C2\Sc3cc(F)ccc3N2C)s/c1=C\c1ccccn1 | 9 ± 1.7 | –
CCn1c(=O)/c(=C2\Sc3cc(Cl)ccc3N2C)s/c1=C\c1scc[n+]1Cc1ccccc1F | 0.29 ± 0.04 | –
CCn1c(=O)/c(=C2\Sc3cc(Cl)ccc3N2C)s/c1=C\c1scc[n+]1Cc1ccc(C(F)(F)F)o1 | 0.12 ± 0.02 | –
COC(=O)Cn1c(=O)/c(=C2\Sc3cccc(F)c3N2C)s/c1=C\c1ccncc1 | > 20 | –
CCn1c(=O)/c(=C2\Sc3cc(Cl)ccc3N2C)s/c1=C\c1scc[n+]1Cc1ccccc1 | – | IC50 [3]: 0.83 ± 0.2 µM; IC50 [2]: 23.9 ± 1.28 µM; IC50 [4]: 0.71 ± 0.22 µM; IC50 [1]: 0.39 ± 0.03 µM
CCn1c(=O)/c(=C2\Sc3c(ccc(F)c3F)N2C)s/c1=C\c1scc[n+]1Cc1ccccc1 | 0.24 ± 0.01 | –
CCn1c(=O)/c(=C2\Sc3c(cccc3C(F)(F)F)N2C)s/c1=C\c1cccc[n+]1Cc1ccc(F)c(F)c1 | – | IC50 [5]: 4.77 ± 0.48 µM; IC50 [3]: 8.47 ± 0.89 µM; IC50 [4]: 5.35 ± 1.54 µM; IC50 [1]: 6.16 ± 1.33 µM
CCn1c(=O)/c(=C2\Sc3ccc(OC(F)(F)F)cc3N2C)s/c1=C\c1scc[n+]1Cc1ccccc1 | 1.25 ± 0.13 | –
CCn1c(=O)/c(=C2\Sc3ccc(S(C)(=O)=O)cc3N2C)s/c1=C\c1scc[n+]1Cc1ccccc1 | > 20 | –
CCn1c(=O)/c(=C2\Sc3cc(C#N)ccc3N2C)s/c1=C\c1cccc[n+]1Cc1ccccc1 | 1.4 ± 0.1 | –
CCn1c(=O)/c(=C2\Sc3cc(F)ccc3N2C)s/c1=C\c1scc[n+]1Cc1ccc(C(F)(F)F)o1 | 0.16 ± 0.03 | –
CCn1c(=O)/c(=C2\Sc3ccc(Cl)cc3N2C)s/c1=C\c1scc[n+]1Cc1ccccc1C(F)(F)F | 0.25 ± 0.03 | –
